From ChEMBL document CHEMBL1201862, “PubChem BioAssay data set” (2004)
The source made the active and inactive calls.

Key:
[1] = T. cruzi growth inhibition in host cells, dose response, cell-based, plate reader, dry powder, set 2 (AID 652275); type: functional
[2] = molecular target: Peroxisome proliferator-activated receptor gamma/Nuclear receptor coactivator 3 (Homo sapiens, UniProt P37231); experiment: (§1) TR-FRET dose response biochemical High Throughput Screening assay for agonists of the steroid receptor coactivator 3 (SRC-3) recruitment by the peroxisome proliferator-activated receptor gamma (PPAR gamma): non-selective agonists. [Related pubchem assays: 1301 (Confirmation screen.), 1048 (Primary screen.)]; type: functional
Beta-lactamase [3] = molecular target: T1, Beta-lactamase (Pseudomonas aeruginosa, UniProt Q79MP6); experiment: IMP-1 metallo-beta-lactamase inhibitors, dose response, selectivity assay for VIM-2 inhibitor project, biochemical, epi-absorbance (AID 1920)
Beta-lactamase [4] = molecular target: T1, Beta-lactamase; experiment: […] counterscreen for selective VIM-2 inhibitors: dose response biochemical high throughput screening assay to identify inhibitors of IMP-1 metallo-beta-lactamase.
[5] = molecular target: Peroxisome proliferator-activated receptor gamma/Nuclear receptor coactivator 1 (Homo sapiens, UniProt P37231); experiment: as §1, with “1 (SRC-1)” for “3 (SRC-3)”, “assays (depositor defined):AID1300, AID1808, AID504735, AID631]” for “assays: 1301 (Confirmation screen.), 1048 (Primary screen.)]”; type: protein assay
Protein skinhead-1 = molecular target: T2, Protein skinhead-1 (Caenorhabditis elegans, UniProt P34707); type: functional
T2 sequence (P34707 whole entry): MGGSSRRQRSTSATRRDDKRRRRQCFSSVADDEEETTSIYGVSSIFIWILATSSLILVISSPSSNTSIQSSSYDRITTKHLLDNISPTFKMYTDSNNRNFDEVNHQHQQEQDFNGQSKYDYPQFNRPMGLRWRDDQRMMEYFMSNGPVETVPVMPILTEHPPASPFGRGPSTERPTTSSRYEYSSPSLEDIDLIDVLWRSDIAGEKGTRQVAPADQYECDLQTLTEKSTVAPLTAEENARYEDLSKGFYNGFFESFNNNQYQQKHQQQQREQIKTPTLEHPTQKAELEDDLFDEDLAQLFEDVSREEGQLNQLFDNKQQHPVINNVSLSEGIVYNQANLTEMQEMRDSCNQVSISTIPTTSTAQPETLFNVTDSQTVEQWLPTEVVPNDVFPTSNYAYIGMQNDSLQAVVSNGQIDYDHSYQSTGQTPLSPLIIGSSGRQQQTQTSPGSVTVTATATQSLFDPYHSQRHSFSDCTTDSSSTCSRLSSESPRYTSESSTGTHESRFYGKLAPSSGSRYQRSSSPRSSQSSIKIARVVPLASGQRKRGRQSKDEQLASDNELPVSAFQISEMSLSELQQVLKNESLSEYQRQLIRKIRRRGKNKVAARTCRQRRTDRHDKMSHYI

Beta-lactamase [6] = molecular target: Beta-lactamase (Salmonella choleraesuis (strain SC-B67), UniProt Q5J463); experiment: Epi-absorbance-based counterscreen for selective VIM-2 inhibitors: dose response biochemical high throughput screening assay to identify inhibitors of TEM-1 serine-beta-lactamase.
[7] = molecular target: Peroxisome proliferator-activated receptor gamma/Nuclear receptor coactivator 2 (Homo sapiens, UniProt P37231); experiment: TR-FRET dose response biochemical High Throughput Screening assay for agonists of the steroid receptor coactivator 2 (SRC-2) recruitment by the peroxisome proliferator-activated receptor gamma (PPAR gamma): non-selective agonists. [Related pubchem assays: 1297, 1032 ]; type: functional
[8] = molecular target: FAD-linked sulfhydryl oxidase ALR (Homo sapiens, UniProt P55789); experiment: inhibitors of human ALR sulfhydryl oxidase, dose response, biochemical, H2O2 detection, luminescence, cherry-pick (AID 493248)
cells [9] = experiment: cells
Major prion protein = Major prion protein (Homo sapiens, UniProt P04156); type: functional, cell-based
[10] = molecular target: Protein-tyrosine kinase 2-beta (Homo sapiens, UniProt Q14289);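 further: potency of inhibitors of PYK2 kinase phosphorylation of poly-GT substrate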
[11] = HEK293 cell cytotoxicity, dose response, cytotoxicity control, cherry-picks, set 5 (AID 1053117); type: functional, cell-based
Paired box protein Pax-8 = Paired box protein Pax-8 (Homo sapiens, UniProt Q06710); experiment: inhibitors of PAX8-driven TPO luciferase reporter, dose response, RMG-I cells, cherry-pick (AID 687027); type: functional, cell-based;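 further: luciferase reporter driven by Pax8 target thyroperoxidase promoter measured by SteadyGlo luminescence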
[12] = IGROV1 ovarian cancer cell cytotoxicity, dose response, PAX8 inhibitor project, plate reader, dry powder samples (AID 743043); type: functional, cell-based; conditions: IGROV-1
[13] = NIH:OVCAR-3 ovarian cancer cell cytotoxicity, dose response, PAX8 inhibitor project, plate reader, dry powder samples (AID 743044); type: functional, cell-based
[14] = molecular target: T3, DNA repair protein RAD52 homolog (Homo sapiens, UniProt P43351); type: functional, biochemical
T3 sequence (P43351 whole entry): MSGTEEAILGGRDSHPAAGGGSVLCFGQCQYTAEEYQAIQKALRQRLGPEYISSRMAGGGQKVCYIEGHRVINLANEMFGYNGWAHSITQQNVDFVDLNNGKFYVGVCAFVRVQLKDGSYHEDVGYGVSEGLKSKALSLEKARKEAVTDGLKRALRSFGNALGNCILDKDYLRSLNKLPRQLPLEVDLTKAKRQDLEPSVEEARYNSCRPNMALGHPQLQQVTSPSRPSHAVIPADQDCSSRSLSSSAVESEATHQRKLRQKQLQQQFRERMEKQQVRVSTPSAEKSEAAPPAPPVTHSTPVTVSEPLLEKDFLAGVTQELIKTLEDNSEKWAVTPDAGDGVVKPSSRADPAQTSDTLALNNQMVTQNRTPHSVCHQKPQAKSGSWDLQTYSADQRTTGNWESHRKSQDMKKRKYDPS

[15] = human group III sPLA2 inhibitors, dose response, biochemical, QFRET, IC50 (AID 743457);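 further: green fluorescence rise as the enzyme cleaves BODIPY PC-A2 in liposomes; potency for inhibition of the enzyme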
[16] = HEK293T cytotoxicity, dose response, cytotoxicity control for miR-122 modulator project, cell-based, inhibitor set, cherry-pick, set 2 (AID 720697); type: functional
[17] = miR-122 activators in hepatoma reporter cells, dose response, cell-based, Huh7 psiCHECK-miR122, Renilla luciferase, cherry-picked (AID 651956); type: functional;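 further: huh7 hepatoma cells stably carrying a psiCHECK-2 miR-122 sensor plasmid; renilla luciferase signal reporting endogenous miR-122 activity after 48 h compound exposure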
Estrogen receptor beta [18] = molecular target: T4, Estrogen receptor beta (Homo sapiens, UniProt Q92731);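 further: recombinant ER-beta bound to coactivator SRC1 peptide in presence of estradiol agonist; inhibitors block coactivator peptide binding and lower the FRET signal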
Estrogen receptor beta [19] = molecular target: T4, Estrogen receptor beta; experiment: ERβ–SRC-3 coactivator interaction inhibitors, confirmation, orthogonal assay, biochemical, ELISA, streptavidin-HRP readout (AID 1060)
cells [20] = type: functional, cell-based
Caspase-3 = molecular target: T5, Caspase-3 (Homo sapiens, UniProt P42574); experiment: SAR Analysis of small molecule inhibitors of Sentrin-specific proteases (SENPs) using a Caspase-3 Selectivity assay. [Related pubchem assays (depositor defined):AID2540, AID2599, AID434973, AID489001]; type: functional
T5 sequence (P42574 whole entry): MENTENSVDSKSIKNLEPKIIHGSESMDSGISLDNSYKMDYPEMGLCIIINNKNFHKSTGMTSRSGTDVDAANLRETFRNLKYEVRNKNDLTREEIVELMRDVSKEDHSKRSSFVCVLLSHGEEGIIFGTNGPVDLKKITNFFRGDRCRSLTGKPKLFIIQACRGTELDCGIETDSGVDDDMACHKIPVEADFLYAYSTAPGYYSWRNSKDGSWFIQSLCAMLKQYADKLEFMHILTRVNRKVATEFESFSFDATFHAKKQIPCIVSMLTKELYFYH

[21] = molecular target: T6, Sentrin-specific protease 6 (Homo sapiens, UniProt Q9GZR1); experiment: SAR Analysis of small molecule inhibitors of Sentrin-specific protease 6 (SENP6) using a Luminescent assay. [Related pubchem assays (depositor defined):AID2582, AID2599]; type: functional
T6 sequence (Q9GZR1 whole entry): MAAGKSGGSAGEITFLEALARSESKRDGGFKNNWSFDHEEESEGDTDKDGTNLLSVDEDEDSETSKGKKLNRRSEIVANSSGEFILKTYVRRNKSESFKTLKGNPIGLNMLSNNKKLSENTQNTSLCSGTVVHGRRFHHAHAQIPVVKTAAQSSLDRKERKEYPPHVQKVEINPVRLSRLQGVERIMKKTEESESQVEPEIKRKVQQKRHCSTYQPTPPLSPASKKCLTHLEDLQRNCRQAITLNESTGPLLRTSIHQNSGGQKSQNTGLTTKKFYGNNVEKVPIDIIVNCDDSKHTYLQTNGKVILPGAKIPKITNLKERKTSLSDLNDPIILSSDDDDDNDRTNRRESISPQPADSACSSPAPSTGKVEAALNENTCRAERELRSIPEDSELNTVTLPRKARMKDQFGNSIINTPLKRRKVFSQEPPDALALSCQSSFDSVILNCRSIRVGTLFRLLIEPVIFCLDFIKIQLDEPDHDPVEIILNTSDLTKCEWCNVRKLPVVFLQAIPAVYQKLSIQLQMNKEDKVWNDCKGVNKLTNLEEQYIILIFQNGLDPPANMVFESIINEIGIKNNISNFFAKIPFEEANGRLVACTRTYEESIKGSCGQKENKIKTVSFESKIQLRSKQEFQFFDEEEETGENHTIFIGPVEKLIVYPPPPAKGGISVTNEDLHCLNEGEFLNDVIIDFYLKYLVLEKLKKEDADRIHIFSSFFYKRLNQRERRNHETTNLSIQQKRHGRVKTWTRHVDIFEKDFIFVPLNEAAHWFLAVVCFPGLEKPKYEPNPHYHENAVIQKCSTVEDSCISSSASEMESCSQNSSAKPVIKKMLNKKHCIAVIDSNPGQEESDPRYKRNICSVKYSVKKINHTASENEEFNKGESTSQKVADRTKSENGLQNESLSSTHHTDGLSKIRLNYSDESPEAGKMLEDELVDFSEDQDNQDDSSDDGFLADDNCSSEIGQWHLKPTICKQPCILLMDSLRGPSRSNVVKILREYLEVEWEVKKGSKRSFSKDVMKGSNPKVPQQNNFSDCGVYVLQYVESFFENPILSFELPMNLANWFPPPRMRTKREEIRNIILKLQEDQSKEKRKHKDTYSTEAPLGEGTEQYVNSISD

cells [22] = type: functional, cell-based; remark: listed apart in the source
[23] = molecular target: T7, Sentrin-specific protease 8 (Homo sapiens, UniProt Q96LD8); experiment: SENP8 protease inhibitors, SAR follow-up, biochemical, luminescence (AID 504501); type: functional
T7 sequence (Q96LD8 whole entry): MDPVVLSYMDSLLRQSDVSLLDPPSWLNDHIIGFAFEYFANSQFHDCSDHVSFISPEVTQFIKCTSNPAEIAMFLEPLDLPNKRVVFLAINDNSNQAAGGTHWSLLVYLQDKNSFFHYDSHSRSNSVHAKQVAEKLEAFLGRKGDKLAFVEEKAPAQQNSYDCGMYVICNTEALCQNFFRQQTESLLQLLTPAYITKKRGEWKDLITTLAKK

[24] = HepG2 cell cytotoxicity, dose response, cytotoxicity control, cherry-picked samples (AID 1159577); type: functional, cell-based
[25] = non-specific cell cytotoxicity, dose response, cytotoxicity control for PAX8 inhibitor project, plate reader, dry powder samples (AID 743021); type: functional, cell-based
[26] = P. falciparum Dd2 growth inhibitors, dose response, SYBR Green, cherry-picked samples (AID 1159567); type: functional, cell-based

CN(C)C(=O)c1cccc(-c2ccc([C@H]3[C@H](CO)N4CCCCN(C(=O)C5CCCC5)C[C@@H]34)cc2)c1
AC50 [1]: 0.065 µM (active)

Cc1c(Cl)c(-c2nnc(S)n2-c2ccc(F)cc2)nn1C
EC50 [2]: > 79.4 µM (not active)
IC50 (Beta-lactamase [3]): > 59.6 µM (inactive)
IC50 (Beta-lactamase [4]): > 59.6 µM (inactive)
EC50 [5]: > 79.4 µM (inactive)
IC50 (Protein skinhead-1): > 100 µM (inactive)
IC50 (Beta-lactamase [6]): > 59.6 µM (inactive)
EC50 [7]: > 79.4 µM (not active)
AC50 [8]: 5.12 µM (active)

COC(=O)CSc1nc(C(C)C)nc2ccccc12
IC50 (cells [9]): > 138 µM (inactive)
IC50 (Major prion protein): 0.91 µM (active)
IC50 [10]: > 69.5 µM (not active)

CO[C@H]1CN(C)C(=O)c2cc(NC(=O)Nc3ccc(Cl)c(Cl)c3)ccc2OC[C@@H](C)NC[C@H]1C
AC50 [11]: > 52 µM (inactive)

O=C1CN(S(=O)(=O)Cc2ccccc2)C[C@@H]2[C@H](c3ccc(C#Cc4ccc(F)cc4)cc3)[C@H](CO)N12
AC50 (Paired box protein Pax-8): 9.68 µM (active)
AC50 [12]: 52.7 µM (active)
AC50 [13]: 31 µM (active)

N=C(N)/N=N/C(=N\Nc1ccccc1)c1ccc(Cl)cc1
AC50 [14]: 12.7 µM (active)
IC50 [15]: > 122 µM (inactive)

CN(C)C(=O)c1ccc(NC(=O)c2cc(-n3cnnc3)ccc2Cl)cc1
AC50 [16]: 1.88 µM (active)
AC50 [17]: 1.1 µM (active)

CCC(Sc1ncnc2sc(C)c(C)c12)C(=O)OC (stereo unspecified)
IC50 (Estrogen receptor beta [18]): 14.1 µM (active)
IC50 (cells [9]): > 138 µM (inactive)
IC50 (Major prion protein): 2.46 µM (active)
IC50 (Estrogen receptor beta [19]): < 0.023 µM (not active)

NC(=O)c1csc(-c2ccncc2)n1
AC50 [16]: 8.85 µM (active)

O=C(Nc1ccccc1F)c1ccc(OCc2ccccc2)cc1
IC50 (cells [20]): > 29.9 µM (inactive)
IC50 (Caspase-3): 10.3 µM (active)
IC50 [21]: > 99 µM (inactive)
EC50 (cells [22]): > 29.9 µM (inactive)
IC50 [23]: > 99 µM (inactive)

O=C(NCCS(=O)(=O)NCCc1ccccc1)c1ccc2c(c1)OCO2
IC50 (cells [20]): > 29.9 µM (inactive)
EC50 (cells [22]): > 29.9 µM (inactive)

COc1ccc(-c2ccc([C@@H]3[C@@H](CO)N4CCCCN(C(=O)Cc5ccccc5)C[C@H]34)cc2)cc1
AC50 (Paired box protein Pax-8): 41.5 µM (active)
AC50 [24]: > 39 µM (inactive)
AC50 [25]: 40.8 µM (active)
AC50 [26]: 6.32 µM (active)
